Converted amounts (≈) assume the structure as drawn. Where two headings read alike, the source gives them in different places. Positions of bridges follow the written chain, without caps; N, C: chain ends. Non-standard residues stand in square brackets, D forms with d. Residues, ends and D or L forms follow the SMILES beside them. *: point of attachment. Decanoyl(3R-OH) = CCCCCCC[C@@H](O)CC(=O)*; X3 = CCCCCCCCCCCC(O)CC(=O)*; dDab = NCC[C@@H](N)C(=O)O; X8 = CC(C)CCCC(C)CC(=O)*; Dab = NCC[C@H](N)C(=O)O
Assays:
A. baumannii ATCC 19606 = settings: ATCC 19606
Protocol: (§1) Bacteria were either obtained from American Type Culture Collection (ATCC; Manassas, Va., USA) or independent academic clinical isolate collections, as listed in Table 18 below. Bacteria were cultured in Nutrient broth (NB; Bacto Laboratories, catalogue No. 234000) or Mueller Hinton broth (MHB; Bacto Laboratories, catalogue No. 211443) at 37° C. overnight with shaking (˜180 RPM). A sample of each culture was then diluted 50-fold in fresh MHB and incubated at 37° C. for 2-3 h with shaking (˜180 RPM). Compound stock solutions were prepared as 0.64 mg/mL or 2.56 mg/mL in water. The compounds, at twice the final desired concentration, were serially diluted 2-fold across the wells of 96-well plates (Polystyrene, Corning, catalogue No. 3370). Mid-log phase bacterial cultures (after 2-3 h incubation) were diluted to a final concentration of 1×10^6 colony forming units (CFU)/mL, and 50 μL was added to each well giving a final cell density of 5×10^5 and a compound concentration range of 32 μg/mL to 0.015 μg/mL (128-0.06 μg/mL against P. aeruginosa PA9704).

A. baumannii GN_093 PmxR = settings: GN 093 PmxR
Protocol: as §1

E. coli ATCC 25922 = settings: ATCC 25922
Protocol: as §1

K. pneumoniae ATCC 13883 = settings: ATCC 13883
Protocol: as §1

[1] = tested on: K. pneumoniae ATCC 700603, MDR; settings: ATCC 700603
Protocol: as §1

[2] = tested on: K. pneumoniae ATCC BAA-2146, NDM-1 pos; settings: ATCC BAA-2146
Protocol: as §1

[3] = tested on: K. pneumoniae GN_102 PmxR; settings: GN 102 PmxR
Protocol: as §1

[4] = tested on: K. pneumoniae GN_106, PmxR; settings: GN 106, PmxR
Protocol: as §1

P. aeruginosa ATCC 27853 = settings: ATCC 27853
Protocol: as §1

[5] = tested on: P. aeruginosa GN_043, PmxR
Protocol: as §1

[6] = tested on: P. aeruginosa GN_105, PmxR; settings: GN 105, PmxR
Protocol: as §1

[7] = tested on: S. aureus ATCC 25923, MSSA; settings: ATCC 25923
Protocol: as §1

| Structure (SMILES) | MIC A. baumannii ATCC 19606 (A. baumannii ATCC 19606) | MIC A. baumannii GN_093 PmxR (A. baumannii GN_093 PmxR) | MIC E. coli ATCC 25922 (E. coli ATCC 25922) | MIC K. pneumoniae ATCC 13883 (K. pneumoniae ATCC 13883) | MIC K. pneumoniae ATCC 700603, MDR [1] | MIC K. pneumoniae ATCC BAA-2146, NDM-1 pos [2] | MIC K. pneumoniae GN_102 PmxR [3] | MIC K. pneumoniae GN_106, PmxR [4] | MIC P. aeruginosa ATCC 27853 (P. aeruginosa ATCC 27853) | MIC P. aeruginosa GN_043, PmxR [5] | MIC P. aeruginosa GN_105, PmxR [6] | MIC S. aureus ATCC 25923, MSSA [7] | MIC, A. baumannii ATCC 19606 (A. baumannii ATCC 19606) | MIC, E. coli ATCC 25922 (E. coli ATCC 25922) | MIC, K. pneumoniae ATCC 13883 (K. pneumoniae ATCC 13883) | MIC, K. pneumoniae ATCC 700603, MDR [1] | MIC, K. pneumoniae ATCC BAA-2146, NDM-1 pos [2] | MIC, P. aeruginosa ATCC 27853 (P. aeruginosa ATCC 27853) | MIC P. aeruginosa GN_043, PmxR ([5]; Table 6, polymyxin-resistant) | MIC, S. aureus ATCC 25923, MSSA [7] |
| --- | --- | --- | --- | --- | --- | --- | --- | --- | --- | --- | --- | --- | --- | --- | --- | --- | --- | --- | --- | --- |
| CCCCCCCCCCCC(O)CC(=O)N[C@H](CCN)C(=O)N[C@H]1CCNC(=O)[C@H](CC(C)C)NC(=O)[C@H](CCN)NC(=O)[C@H](CCN)NC(=O)[C@H](CC(C)C)NC(=O)[C@@H](Cc2ccccc2)NC(=O)[C@H](CCN)NC1=O (stereo partly drawn) [compound 5015, 3OH-nC13CO-D-Dab-cyc[L-Dab-L-Dab-D-Phe-L-Leu-L-Dab-L-Dab-L-Leu]] (X3-[dDab][Dab][Dab][dF]L[Dab][Dab]L; lactam 2-C) | 4 µg/mL (≈ 3.63 µM) | 8 µg/mL (≈ 7.27 µM) | 4 µg/mL (≈ 3.63 µM) | 4 µg/mL (≈ 3.63 µM) | 8 µg/mL (≈ 7.27 µM) | 8 µg/mL (≈ 7.27 µM) | 8 µg/mL (≈ 7.27 µM) | 4 µg/mL (≈ 3.63 µM) | 4 µg/mL (≈ 3.63 µM) | 4 µg/mL (≈ 3.63 µM) | 4 µg/mL (≈ 3.63 µM) | 4 µg/mL (≈ 3.63 µM) |  |  |  |  |  |  |  |  |
| CCCCCCC[C@@H](O)CC(=O)NCC(=O)N[C@H]1CCNC(=O)[C@H](CC(C)C)NC(=O)[C@H](CCN)NC(=O)[C@H](CCN)NC(=O)[C@H](CC(C)C)NC(=O)[C@@H](Cc2ccccc2)NC(=O)[C@H](CCN)NC1=O [compound 6446, 3(R)OH-nC9CO-Gly-cyc[L-Dab-L-Dab-D-Phe-L-Leu-L-Dab-L-Dab-L-Leu]] ({Decanoyl(3R-OH)}-G[Dab][Dab][dF]L[Dab][Dab]L; lactam 2-C) |  | 32 µg/mL (≈ 32 µM) |  |  |  |  | 4 µg/mL (≈ 3.99 µM) | 8 µg/mL (≈ 7.99 µM) |  |  | 4 µg/mL (≈ 3.99 µM) |  | 32 µg/mL (≈ 32 µM) | 8 µg/mL (≈ 7.99 µM) | 8 µg/mL (≈ 7.99 µM) | 8 µg/mL (≈ 7.99 µM) | 8 µg/mL (≈ 7.99 µM) | 4 µg/mL (≈ 3.99 µM) | 4 µg/mL (≈ 3.99 µM) | >32 µg/mL |
| CCCCCCC[C@@H](O)CC(=O)N[C@H](CC(N)=O)C(=O)N[C@H]1CCNC(=O)[C@H](CC(C)C)NC(=O)[C@H](CCN)NC(=O)[C@H](CCN)NC(=O)[C@H](CC(C)C)NC(=O)[C@@H](Cc2ccccc2)NC(=O)[C@H](CCN)NC1=O [compound 6447, 3(R)OH-nC9CO-D-Asn-cyc[L-Dab-L-Dab-D-Phe-L-Leu-L-Dab-L-Dab-L-Leu]] ({Decanoyl(3R-OH)}-[dN][Dab][Dab][dF]L[Dab][Dab]L; lactam 2-C) |  | 8 µg/mL (≈ 7.56 µM) |  |  |  |  | 4 µg/mL (≈ 3.78 µM) | 4 µg/mL (≈ 3.78 µM) |  |  | 4 µg/mL (≈ 3.78 µM) |  | 16 µg/mL (≈ 15.1 µM) | 4 µg/mL (≈ 3.78 µM) | 4 µg/mL (≈ 3.78 µM) | 8 µg/mL (≈ 7.56 µM) | 8 µg/mL (≈ 7.56 µM) | 8 µg/mL (≈ 7.56 µM) | 8 µg/mL (≈ 7.56 µM) | 32 µg/mL (≈ 30.2 µM) |
| CC(C)CCCC(C)CC(=O)N[C@H](CCN)C(=O)N[C@H]1CCNC(=O)[C@H](CC(C)C)NC(=O)[C@H](CCN)NC(=O)[C@H](CCN)NC(=O)[C@H](CC(C)C)NC(=O)[C@@H](Cc2ccccc2)NC(=O)[C@H](CCN)NC1=O (stereo partly drawn) [compound 6523, 3,7-dimethyloctanoic acid-D-Dab-cyc[L-Dab-L-Dab-D-Phe-L-Leu-L-Dab-L-Dab-L-Leu]] (X8-[dDab][Dab][Dab][dF]L[Dab][Dab]L; lactam 2-C) | >32 µg/mL | 16 µg/mL (≈ 15.6 µM) | 1 µg/mL (≈ 0.972 µM) | 4 µg/mL (≈ 3.89 µM) | 8 µg/mL (≈ 7.78 µM) | 8 µg/mL (≈ 7.78 µM) | 16 µg/mL (≈ 15.6 µM) | 32 µg/mL (≈ 31.1 µM) | 2 µg/mL (≈ 1.94 µM) | 2 µg/mL (≈ 1.94 µM) | 2 µg/mL (≈ 1.94 µM) | 32 µg/mL (≈ 31.1 µM) |  |  |  |  |  |  |  |  |
